# System: arachidonic acid induced mouse ear inflammation
# Assay: arachidonic acid induced mouse ear inflammation test (MPO as index of neutrophil accumulation)
# Format: in vivo, mice
# Settings: for maximum inhibitory effect: group5; for effect on arachidonic acid induced ear inflammation in mice (in words): single compounds, oral administration
# Method: Female albino mice (Han:NMRI) obtained from Interfauna and weighing about 20-25 g were used. The animals were provided with standardised pellet diet (Altromin 8013) and had tap water freely available. The animals were accommodated in a climatized room with a 12 hours light/dark cycle and kept in groups.
# The compound of formula IA and meloxicam were administered orally (0.2 ml/10 g bw) 30 min. before arachidonic acid challenge. Meloxicam was given twice: one dose 16 hours and the second dose 30 minutes before challenge. For every day there was a concurrent control. Then number of animals per group was 7. The study compounds were suspended in 1% methylcellulose (Tylose MH 300, Fluka, CH-9470 Buchs). The experiment was run in five groups. Every group contained one control, two doses of meloxicam, two doses of (IA), and one dose of the combination of the two compounds.
# Mice were lightly anesthetized by ether and 1 mg arachidonic acid (10 μl) was applied to each side of the left ear. […] The animals were sacrificed by ether 6 hours later, and a biopsy (diameter 8 mm) was punched out from both ears to assess an increase of neutrophils in the left ear compared with the right ear. Tissue samples were homogenized in 1 ml 0.5% HTAB (Hexadecyl-trimethyl-ammonium-bromide; Sigma H-5882; solved in 0.05 M phosphate buffer, pH 6.0) using a tissue homogenizer (IKA-Ultraturrax T5; Janke & Kunkel, Staufen/Breisgau) at 30000 RPM for 15 seconds. After centrifugation (16000 G, 5 min) the supernatants were frozen until processing for myeloperoxidase (MPO). Determination in the supernatants for MPO, a neutrophil marker enzyme, served as a quantitative index for the neutrophil accumulation.
# MPO was determined spectrophotometrically at 450 nm using a micro plate version of the method of Bradley (1982) and a micro plate reader (Vmax; Molecular Devices, Palo Alto) suitable for kinetic measurements and expressed as mean optical density per minute.
# For each individual the response myeloperoxidase activity (MPO) in optical density per minute (oD/min) was measured.
# For the comparisons the nonparametric statistical methods Kruskal-Wallis-One-Way-ANOVA and the Wilcoxon-Two-Sample-Test (2 sided) have been used. For the first and last comparisons also Bonferroni-Holm adjusted p-values have been calculated.
Compound,maximum inhibitory effect (supra-maximum doses 16 and 32 mg/kg p.o.),effect on arachidonic acid induced ear inflammation in mice (in words),maximum inhibitory effect (supra-maximum doses 0.8 and 1.6 mg/kg p.o.)
"Cc1cnc(NC(=O)C2=C(O)c3ccccc3S(=O)(=O)N2C)s1 [Meloxicam, meloxicam]",37%,inhibited arachidonic acid induced ear inflammation in mice,–
CCOC(=O)N=C(N)c1ccc(OCc2cccc(COc3ccc(C(C)(C)c4ccc(O)cc4)cc3)c2)cc1,–,inhibited arachidonic acid induced ear inflammation in mice,66%

# — patent publication US20040116516A1 (Boehringer Ingelheim Pharma GmbH & Co. KG, priority 2002, published 2004)
